Laboratory results reported in article PMC8949187, “Study of Structure–Activity Relationships of the Marine Alkaloid Fascaplysin and Its Derivatives as Potent Anticancer Agents” (Marine Drugs, 2022).

Columns and labels:
PC-3 cells = experiment: MTT assay, PC-3 cells; assay type: cell-based, human; settings: Homo sapiens, PC-3; prostate cancer cells; 48 h of treatment; mean ± SD
Protocol: (§1) The human prostate cancer cell lines PC-3, DU145, 22Rv1 and LNCaP, as well as human prostate non-cancer cell line PNT2 were purchased from ATCC (Manassas, VA, USA). HEK 293T (human embryonic kidney cells) and MRC-9 (human fibroblast cells) cell lines were purchased from ECACC (Salisbury, UK). […] Authentication of all cell lines used was recently performed by a commercial service (Multiplexion GmbH, Heidelberg, Germany).
(§2) Cells were cultured as monolayers at 37 °C in a humidified atmosphere with 5% (v/v) CO2 in the correspondent culture medium: 10% FBS/RPMI medium (RPMI medium supplemented with Glutamax^TM-I (gibco® Life technologies^TM, Paisley, UK) containing 10% fetal bovine serum (FBS, gibco® Life technologies^TM) and 1% penicillin/streptomycin (Invitrogen)) for PNT2, LNCaP, 22Rv1, PC-3 and DU145 and cells; 10% FBS/DMEM medium (DMEM medium supplemented with Glutamax^TM-I (gibco® Life technologies^TM) containing 10% FBS and 1% penicillin/streptomycin (gibco® Life technologies^TM)) for MRC-9 and HEK 293 cells. Cells were continuously kept in culture for a maximum of 3 months, and were regularly checked for stable phenotype and mycoplasma infection.
(§3) Effect of the drugs on cell viability in terms of metabolic activity was assessed by MTT assay, as previously reported. Cells were pre-incubated overnight in 96-well plates (6 × 10^3 cells/well in 100 μL/well) in the correspondent culture media. Then, the medium was replaced with fresh 10% FBS/RPMI medium containing the investigated compounds (100 μL/well), and cells were incubated for 48 h, unless otherwise stated. Next, 10 μL/well of (3-(4,5-dimethylthiazol-2-yl)-2,5-diphenyltetrazolium bromide) reagent (MTT, 5 mg/mL) was added. After 2–4 h of incubation, the media was aspirated and the plates were dried. Then, 50 μL/well of DMSO was added to each well and the cell viability was measured using an Infinite F200PRO reader (TECAN, Männedorf, Switzerland). Results were calculated using the GraphPad Prism software v.9.1.1 (GraphPad Software, San Diego, CA, USA) and are represented as IC50 of the compounds calculated using the cells treated with the solvent alone as a control.

22Rv1 cells [1] = experiment: MTT assay, 22Rv1 cells; assay type: cell-based, human; settings: Homo sapiens, 22Rv1; prostate cancer cells; 48 h of treatment; mean ± SD
Protocol: as §1, §2, §3

DU145 cells = experiment: MTT assay, DU145 cells; assay type: cell-based, human; settings: Homo sapiens, DU-145; prostate cancer cells; 48 h of treatment; mean ± SD
Protocol: as §1, §2, §3

LNCaP cells = experiment: MTT assay, LNCaP cells; assay type: cell-based, human; settings: Homo sapiens, LNCaP; prostate cancer cells; 48 h of treatment; mean ± SD
Protocol: as §1, §2, §3

PNT2 cells = experiment: MTT assay, PNT2 cells; assay type: cell-based, human; settings: Homo sapiens, PNT2; non-cancer cells; 48 h of treatment; mean ± SD
Protocol: as §1, §2, §3

MRC-9 cells = experiment: MTT assay, MRC-9 cells; assay type: cell-based, human; settings: Homo sapiens, MRC9; non-cancer cells; 48 h of treatment; mean ± SD
Protocol: as §1, §2, §3

HEK-293 cells = experiment: MTT assay, HEK-293 cells; assay type: cell-based, human; settings: Homo sapiens, HEK293; non-cancer cells; 48 h of treatment; mean ± SD
Protocol: as §1, §2, §3

22Rv1 cells [2] = experiment: Trypan blue-based viability assay; assay type: cell-based, human; settings: Homo sapiens, 48 h of treatment, mean ± SD, read-out: IC50, trypan blue staining assay
Protocol: The effect of the drugs on cell viability in terms of cellular membrane integrity was evaluated by the trypan blue exclusion assay as described before. In brief, cells (0.2 × 10^6 cells/well) were seeded in 6-well plates and incubated overnight, and the media was replaced with fresh media (1 mL/well) containing drugs at indicated concentrations. After treatment for 48 h, the cells were harvested by trypsinization, stained with trypan blue and the viability was measured using an automatic Beckman Coulter Vi-CELL (Beckman Coulter, Krefeld, Germany). Trypan blue-positive cells were assumed to have damaged cellular membrane (i.e., dead), whereas trypan blue-negative cells were considered to have an intact cellular membrane (i.e., alive).

22Rv1 cells [3] = experiment: Cell cycle progression, flow cytometry with PI staining; assay type: cell-based, human; settings: treated at IC50 (MTT assay) for 48 h
Protocol: (§4) The effects on cell cycle progression and DNA fragmentation were analyzed by flow cytometry using PI staining, as described before. Cells (2 × 10^5 cells/well) were pre-incubated overnight in 6-well plates and then treated with the investigated drugs in fresh culture media (2 mL/well) for 48 h. Cells were harvested by trypsinization, fixed in 70% EtOH, stained with PI solution and analyzed by FACS Calibur (BD Bioscience, San Jose, CA, USA). The results were quantified using BD Bioscience Cell Quest Pro v.5.2.1. software (BD Bioscience). The cells appearing as a sub-G1 population (containing fragmented DNA) were considered to be apoptotic.

22Rv1 cells [4] = experiment: DNA fragmentation (apoptosis, sub-G1), flow cytometry with PI staining; assay type: cell-based, human; settings: treated at IC50 (MTT assay) for 48 h, mean ± SD
Protocol: as §4

[5] = system: prostate cancer cell lines (PC-3, 22Rv1, DU145 and LNCaP); experiment: MTT assay, mean over four prostate cancer cell lines; assay type: cell-based; settings: Homo sapiens; mean of MTT IC50 in PC-3, 22Rv1, DU145 and LNCaP; from Table S1 values; read-out: mean IC50 in cancer cells
Protocol: as §3, with “Next, SAR analysis was performed to identify the structural elements that are beneficial for anticancer activity of the fascaplysin-related molecules. Considering the complex and heterogeneous nature of tumors even within the same patient, we used calculated mean IC50 values of each drug in all prostate cancer cells for further analysis (Figure 2A). To identify the drug candidates with the highest therapeutic potential, the selectivity index (SI) was calculated as mean IC50 in non-cancer cells versus mean IC50 in cancer cells (Figure 2B), or as a mean IC50 in non-cancer (MRC-9 and HEK293) cells versus mean IC50 in prostate cells (cancer PC-3, 22Rv1, DU145, LNCaP and non-cancer PNT2 cells) (Figure 2C). Finally, to estimate the effects on cellular metabolism, we compared the activity evaluated by using trypan blue assay versus MTT assay (Figure 2D). Effect” for “Effect”, “2-4” for “2–4”, “F200PRO” left out

[6] = system: non-cancer cell lines versus cancer cell lines; experiment: Selectivity index from MTT IC50s; assay type: cell-based, human; settings: for Selectivity index, IC50 (non-prostate) / IC50 (prostate): mean IC50 MRC-9 and HEK-293 versus mean IC50 prostate cancer cell lines plus PNT2; for Selectivity index, IC50 (non-prostate) / IC50 (prostate) / Selectivity index, IC50 (non-cancer) / IC50 (cancer): MTT; for Selectivity index, IC50 (non-cancer) / IC50 (cancer): mean IC50 non-cancer cell lines versus mean IC50 cancer cell lines
Protocol: as §3, with “Next, SAR analysis was performed to identify the structural elements that are beneficial for anticancer activity of the fascaplysin-related molecules. Considering the complex and heterogeneous nature of tumors even within the same patient, we used calculated mean IC50 values of each drug in all prostate cancer cells for further analysis (Figure 2A). To identify the drug candidates with the highest therapeutic potential, the selectivity index (SI) was calculated as mean IC50 in non-cancer cells versus mean IC50 in cancer cells (Figure 2B), or as a mean IC50 in non-cancer (MRC-9 and HEK293) cells versus mean IC50 in prostate cells (cancer PC-3, 22Rv1, DU145, LNCaP and non-cancer PNT2 cells) (Figure 2C). Finally, to estimate the effects on cellular metabolism, we compared the activity evaluated by using trypan blue assay versus MTT assay (Figure 2D). Effect” for “Effect”, “2-4” for “2–4”, “F200PRO” left out

[7] = system: double-stranded calf thymus DNA; experiment: Thiazole orange displacement (DNA intercalation) assay; assay type: binding; settings: 1 µM calf thymus DNA base pairs, 2 µM thiazole orange; 7 min at room temperature; mean ± SD
Protocol: DNA intercalation activity of the compounds was calculated as an ability to displace thiazole orange (TO) from the double-stranded DNA. For this experiment, a mixture (100 µL) containing 1 µM of double-stranded calf thymus DNA (recalculated as a concentration of base pairs) and 2 µM of thiazole orange (TO) solved in water was prepared. Then, the investigated compounds were added up to final concentrations of 0.39–25 µM; DMSO concentration in the samples was <0.02%. Propidium iodide (PI, positive control) was added up to final concentrations of 0.039–2.5 uM. After 7 min of incubation at room temperature, TO fluorescence was monitored using a multimodal plate reader TECAN Spark (Tecan Group Ltd., Männedorf Switzerland) at the excitation λ = 480 nm; fluorescence was recorded at λ = 530 nm. The bandwidth was 10 nm. The concentration of the drug that caused a decrease in TO fluorescence by 50% (EC50) was determined by approximating the experimental data using a non-linear regression algorithm and calculated using the GraphPad Prism software v.9.1.1 (GraphPad Software, San Diego, CA, USA).

| SMILES | IC50 (PC-3 cells) | IC50 (22Rv1 cells [1]) | IC50 (DU145 cells) | IC50 (LNCaP cells) | IC50 (PNT2 cells) | IC50 (MRC-9 cells) | IC50 (HEK-293 cells) | IC50 (22Rv1 cells [2]) | Cell cycle arrest (at IC50) (22Rv1 cells [3]) | % of sub-G1 apoptotic cells (at IC50) (22Rv1 cells [4]) | IC50 [5] | Selectivity index, IC50 (non-prostate) / IC50 (prostate) [6] | Selectivity index, IC50 (non-cancer) / IC50 (cancer) [6] | EC50 [7] | Selectivity index (SI), for Figure 2B,C ([6]; both SI definitions (Figure 2B,C)) |
| --- | --- | --- | --- | --- | --- | --- | --- | --- | --- | --- | --- | --- | --- | --- | --- |
| O=C1c2cc(Br)ccc2-[n+]2ccc3c([nH]c4c(Cl)cc(Cl)cc43)c21.[Cl-] [Compound 14, 12,13-dihydro-2-bromo-9,11-dichloro-13-oxopyrido[1,2-a:3,4-b’]diindol-5-ium chloride] | 5.29 ± 0.132 µM | 4.15 ± 0.34 µM | 6.91 ± 0.65 µM | 6.51 ± 2.32 µM | 2.75 ± 1.74 µM | > 50 µM | 2.61 ± 0.429 µM | 7.43 ± 0.85 µM | No | 23.6±1.2% | 5.72 µM | 5.14 | 3.23 |  |  |
| O=C1c2cc(Br)ccc2-[n+]2ccc3c([nH]c4ccc(Cl)cc43)c21.[Cl-] [Compound 12, 12,13-dihydro-2-bromo-9-chloro-13-oxopyrido[1,2-a:3,4-b’]diindol-5-ium chloride] | 13.2 ± 2.87 µM | 2.89 ± 0.89 µM | 2.08 ± 0.58 µM | 2.7 ± 0.173 µM | 3.33 ± 0.806 µM | 36.3 ± 9.51 µM | 0.75 ± 0.065 µM | 1.64 ± 0.85 µM | No | 6.95±0.901% | 5.23 µM | 3.82 | 2.58 |  |  |
| O=C1c2ccccc2-[n+]2ccc3c([nH]c4ccc(I)cc43)c21.[Cl-] [Compound 7, 12,13-dihydro-9-iodo-13-oxopyrido[1,2-a:3,4-b’]diindol-5-ium chloride] | 3.67 ± 0.2 µM | 0.55 ± 0.071 µM | 0.319 ± 0.075 µM | 0.171 ± 0.035 µM | 0.145 ± 0.066 µM | 0.924 ± 0.132 µM | 0.809 ± 0.164 µM | 0.08 ± 0.004 µM |  | 6.3±0.906% | 1.18 µM | 0.89 | 0.53 | 2.14 ± 0.1 µM | < 1 |
| O=C1c2ccccc2-[n+]2c(-c3ccccc3)cc3c([nH]c4ccccc43)c21.[Cl-] [Compound 20, 12,13-dihydro-6-phenyl-13-oxopyrido[1,2-a:3,4-b’]diindol-5-ium chloride] | 0.429 ± 0.1 µM | 0.156 ± 0.032 µM | 0.444 ± 0.095 µM | 0.283 ± 0.035 µM | 0.44 ± 0.075 µM | 0.86 ± 0.111 µM | 0.412 ± 0.066 µM | 0.207 ± 0.074 µM | No | 16.4±2.47% | 0.33 µM | 1.82 | 1.74 |  |  |
| O=C1c2cc(Br)ccc2-[n+]2ccc3c([nH]c4ccccc43)c21.[Cl-] [Compound 4, 12,13-dihydro-2-bromo-13-oxopyrido[1,2-a:3,4-b’]diindol-5-ium chloride] | 3.4 ± 1.89 µM | 0.529 ± 0.069 µM | 1.9 ± 0.634 µM | 0.349 ± 0.081 µM | 0.82 ± 0.076 µM | 4.27 ± 0.662 µM | 1.1 ± 0.074 µM | 0.26 ± 0.054 µM |  | 8.83±0.7% | 1.55 µM | 1.92 | 1.34 | 1.36 ± 0.03 µM |  |
